According to patent US7148380B2, “Bio-energy muscle relaxants” (priority 2000, dated 2006):

System: contraction of bronchial smooth muscle induced by histamine
Assay: By-pass-airflow pressure, bronchial smooth muscle contraction induced by histamine
Format: in vivo, guinea pig
Description: The animals were divided as saline, BDM, and aminophylline groups. Each animal was anesthetized with pentobarbital (30 mg/kg, I.P.), the trachea was intubated and connected to respirator. Tidal volume and frequency of the respirator were adjusted to 6˜10 ml and 60˜70 breath/min. respectively.
A small hole on chest wall of the animal was made, resulting in pneumothorax to inhibit spontaneous respiration of the animal. A modified device was used for measuring by-pass-airflow pressure of the airway, reflecting alteration in airway resistance, therefore evaluating status of bronchial smooth muscle contraction induced by histamine. The by-pass-airflow pressures were measured before and at 10, 20, 30, 40, 50, and 60 min after administration of histamine (5˜10 μg, I.P.) as control values. […] Changes in by-pass-airflow pressure caused by histamine before and after saline, BDM, or aminophylline were compared.
A percentage of changes in the airflow pressures before and after administration of the histamine at different time points, defined as the change rate, was calculated according to formula 1 below: Change rate (%)=(PA−PB)/PB×100% (1)
where PA is the airflow pressure after histamine, PB is the pressure before histamine. Values were expressed as mean±SD, paired or group “t” test was used upon the requirement for the statistical analysis. The results were considered significant when p<0.05.

[1] = after drug 10 ml/kg I.P., 10 min after histamine
[2] = after drug 10 ml/kg I.P., 20 min after histamine
[3] = after drug 10 ml/kg I.P., 30 min after histamine
[4] = after drug 10 ml/kg I.P., 40 min after histamine
[5] = after drug 10 ml/kg I.P., 50 min after histamine
[6] = after drug 10 ml/kg I.P., 60 min after histamine
[7] = before drug administration, 10 min after histamine
[8] = before drug administration, 20 min after histamine
[9] = before drug administration, 30 min after histamine
[10] = before drug administration, 40 min after histamine
[11] = before drug administration, 50 min after histamine
[12] = before drug administration, 60 min after histamine

CC(=O)C(C)=NO [BDM, 2,3-butanedione monoxime]
by-pass-airflow pressure, A, B. Hist (after drug 10 ml/kg I.P. (BDM 0.2M, aminophylline 1.25%), before histamine): 3.86 ± 0.23 Kpa
by-pass-airflow pressure, A, Hist 10 min. [1]: 3.42 ± 0.21 Kpa
changing rate of by-pass-airflow pressure, A, Hist 10 min. [1]: −11.37%
by-pass-airflow pressure, A, Hist 20 min. [2]: 3.54 ± 0.21 Kpa
changing rate of by-pass-airflow pressure, A, Hist 20 min. [2]: −8.22%
by-pass-airflow pressure, A, Hist 30 min. [3]: 3.56 ± 0.27 Kpa
changing rate of by-pass-airflow pressure, A, Hist 30 min. [3]: −7.80%
by-pass-airflow pressure, A, Hist 40 min. [4]: 3.60 ± 0.28 Kpa
changing rate of by-pass-airflow pressure, A, Hist 40 min. [4]: −6.77%
by-pass-airflow pressure, A, Hist 50 min. [5]: 3.62 ± 0.29 Kpa
changing rate of by-pass-airflow pressure, A, Hist 50 min. [5]: −6.25%
by-pass-airflow pressure, A, Hist 60 min. [6]: 3.66 ± 0.26 Kpa
changing rate of by-pass-airflow pressure, A, Hist 60 min. [6]: −5.11%
histamine-induced increase in the airflow pressure (at 10, 20, 30, 40, and 50 min after administration, p<0.01 or p<0.05): significantly reduce
by-pass-airflow pressure, B, Hist 10 min. [7]: 3.67 ± 0.16 Kpa
changing rate of by-pass-airflow pressure, B, Hist 10 min. [7]: 2.13%
by-pass-airflow pressure, B, Hist 20 min. [8]: 3.76 ± 0.32 Kpa
changing rate of by-pass-airflow pressure, B, Hist 20 min. [8]: 4.49%
by-pass-airflow pressure, B, Hist 30 min. [9]: 3.72 ± 0.21 Kpa
changing rate of by-pass-airflow pressure, B, Hist 30 min. [9]: 3.52%
by-pass-airflow pressure, B, Hist 40 min. [10]: 3.72 ± 0.18 Kpa
changing rate of by-pass-airflow pressure, B, Hist 40 min. [10]: 3.56%
by-pass-airflow pressure, B, Hist 50 min. [11]: 3.67 ± 0.23 Kpa
changing rate of by-pass-airflow pressure, B, Hist 50 min. [11]: 2.06%
by-pass-airflow pressure, B, Hist 60 min. [12]: 3.68 ± 0.11 Kpa
changing rate of by-pass-airflow pressure, B, Hist 60 min. [12]: 2.54%
by-pass-airflow pressure, B, B. Hist (before drug administration, before histamine): 3.60 ± 0.26 Kpa
changing rate of by-pass-airflow pressure, D, Hist 10 min. (difference A minus B, 10 min after histamine): −13.50%
changing rate of by-pass-airflow pressure, D, Hist 20 min. (difference A minus B, 20 min after histamine): −12.72%
changing rate of by-pass-airflow pressure, D, Hist 30 min. (difference A minus B, 30 min after histamine): −11.33%
changing rate of by-pass-airflow pressure, D, Hist 40 min. (difference A minus B, 40 min after histamine): −10.34%
changing rate of by-pass-airflow pressure, D, Hist 50 min. (difference A minus B, 50 min after histamine): −8.31%
changing rate of by-pass-airflow pressure, D, Hist 60 min. (difference A minus B, 60 min after histamine): −7.65%
